Assay results taken from patent US11427533B2, “Crystalline polymorphs of bardoxolone methyl” (PLIVA HRVATSKA d.o.o., priority 2017, dated 2022).
In brackets after ≈: the same amount, converted by molar mass. Entries after “also recorded” stand apart in the source; their conditions may differ. Read-outs that look alike come from different tables or passages of the source.

What was measured:
[1] = Solubility in aqueous buffers, shaker at 37° C., filtrate by UHPLC; assay type: physicochemical; conditions: for Concentration mg/mL (UHPLC) / solubility thermodynamic at 2 h: 150 mg/8 mL suspension; for solubility thermodynamic at 2 h: 37 °C, thermodynamic from solid, read-out: Concentration mg/mL (UHPLC); for Solubility compared with crystalline form A / Solubility compared with non-crystalline (amorphous) form B: in words
Description: UHPLC analyses was performed on Agilent 1290 Infinity LC system with a DAD. UV spectra were recorded at 190-400 nm, with the working wavelength of 240 nm. The column used was Waters Acquity UPLC BEH Phenyl (100 mm×2.1 mm i.d., particle size 1.7 μm), at the column temperature of 50° C. Mobile phases employed for gradient elution were water with 0.1% of formic acid as mobile phase A and acetonitrile with 0.1% of formic acid as mobile phase B. Gradient conditions for the analysis were: isocratic flow from 0.0 to 0.5 min with 40% of mobile phase B; linear gradient from 40% of mobile phase B up to 90% of mobile phase B from 0.5 to 4.0 min; isocratic flow at 90% of mobile phase B from 4.0 to 4.5 min; linear gradient down to 40% of mobile phase B from 4.5 to 5.0 min and finally, reconditioning the column for 0.5 min on starting conditions. 1 μL to 10 μL of sample solution was injected at a flow rate of 0.7 mL min^−1.
Solubility of Bardoxolone methyl form D and the patent forms in U.S. Pat. Nos. 8,309,601 and 8,088,824 were determined in aqueous buffers and water. Suspension of tested substance (150 mg/8 mL) was stirred on a shaker (200 rpm) in a closed vial at 37° C. Suspension was filtered and concentration of Bardoxolone methyl in filtrate was determined by UHPLC. Undissolved residue was analyzed by XRPD.

[2] = as indicated in WO2010093944; cited from earlier work
[3] = Physical stability of Form D (pressure, heating, sauna), form checked by XRPD; assay type: physicochemical; conditions: for XRD form after transformation by sauna (closed flask, RT): 1 day; for XRD form after pressure: 1 min
Description: Crystalline Form D of Bardoxolone is also stable to conversion after exposure to an atmosphere containing organic solvents, for example ethylene glycol, in a closed vessel at room temperature for 24 hours). Such stability may enable the use of form D in variety of preparation methods including preparation of solid dispersion by spray drying, wet granulation etc.
Sample after being powdered in a mortar and pestle is applied directly on a silicon plate holder. The X-ray powder diffraction pattern was measured with Philips X'Pert PRO X-ray powder diffractometer, equipped with Cu irradiation source=1.54184 Å (Ångström), X'Celerator (2.022° 2θ) detector.
The physical stability of Form D was investigated at different conditions: in heating, under pressure and by sauna.

[4] = buffer pH 1.2 (0.063M HCl + 2.0 g/L NaCl), 2 h at 37° C.
[5] = buffer pH 4.5 (0.05M acetate buffer PhEur), 2 h at 37° C.

| Concentration mg/mL (UHPLC) [1, 4] | Concentration mg/mL (UHPLC) ([1]; buffer pH 1.2 (0.063M HCl + 2.0 g/L NaCl), 4 h at 37° C.) | Concentration mg/mL (UHPLC) [1, 5] | solubility thermodynamic at 2 h ([1]; HCl/NaCl buffer, pH 1.2, simulated gastric fluid, buffer pH 1.2 (0.063M HCl + 2.0 g/L NaCl), 2 h at 37° C.) [µg/mL] | solubility thermodynamic at 2 h ([1]; acetate buffer, pH 4.5, aqueous buffer, buffer pH 4.5 (0.05M acetate buffer PhEur), 2 h at 37° C.) [µg/mL] | Solubility compared with crystalline form A [1] | Solubility compared with non-crystalline (amorphous) form B [1] | Solubility compared with crystalline form A ([1]; listed as form D) | Solubility compared with non-crystalline (amorphous) form B ([1]; listed as form D) | XRD form after heating (open vessel) ([3]; 100° C., 5 min) | XRD form after transformation by sauna (closed flask, RT) ([3]; ethylene glycol) | XRD form after pressure ([3]; pressure 1 t) | XRD form after pressure ([3]; pressure 2 t) | XRD form after transformation by sauna (closed flask, RT) ([3]; water) | Structure (SMILES) | Oral bioavailability (in words) [2] | Polymorphic stability, conversion to other forms (in words) ([3]; pressure 1 t or 2 t 1 min, 100° C. 5 min, water sauna RT 90%-100% RH 24 hours, ethylene glycol atmosphere RT 24 hours) |
| --- | --- | --- | --- | --- | --- | --- | --- | --- | --- | --- | --- | --- | --- | --- | --- | --- |
| LTQL | LTQL | LTQL |  |  |  |  |  |  |  |  |  |  |  | COC(=O)[C@]12CCC(C)(C)C[C@H]1[C@H]1C(=O)C=C3[C@]4(C)C=C(C#N)C(=O)C(C)(C)[C@@H]4CC[C@@]3(C)[C@]1(C)CC2 [Form A, Methyl-2-cyano-3,12-dioxooleana-1,9(11)-dien-28-oic acid, reference compound] | relatively low oral bioavailability |  |
|  |  |  | 0.08 | 0.04 (≈ 0.0791 µM) |  |  |  |  |  |  |  |  |  | COC(=O)[C@]12CCC(C)(C)C[C@H]1[C@H]1C(=O)C=C3[C@]4(C)C=C(C#N)C(=O)C(C)(C)[C@@H]4CC[C@@]3(C)[C@]1(C)CC2 [Form B, Methyl-2-cyano-3,12-dioxooleana-1,9(11)-dien-28-oic acid, reference compound] | markedly superior oral bioavailability compared to Form A |  |
| 0.00004 mg/mL |  | 0.00002 mg/mL |  |  | improved solubility | comparable solubility | higher | comparable | Form D | Form D | Form D | Form D | Form D | COC(=O)[C@]12CCC(C)(C)C[C@H]1[C@H]1C(=O)C=C3[C@]4(C)C=C(C#N)C(=O)C(C)(C)[C@@H]4CC[C@@]3(C)[C@]1(C)CC2 [Form D, Methyl-2-cyano-3,12-dioxooleana-1,9(11)-dien-28-oic acid] |  | maintained; also recorded: resistant to conversion to any other forms |
